In patent US11591355B2 (Peloton Therapeutics, Inc., priority 2017, dated 2023) one finds IC50 data, which are given here for 20 compounds.

As a reminder, the IC50 is the concentration at which inhibition is half-maximal.

Read-outs that look alike come from different tables or passages of the source.

One assay has as its target T1, Human CD73 (Homo sapiens, UniProt P21589).
T1 construct: purchased R&D Systems; host or cells: CHO cells
T1 sequence (P21589 27-549): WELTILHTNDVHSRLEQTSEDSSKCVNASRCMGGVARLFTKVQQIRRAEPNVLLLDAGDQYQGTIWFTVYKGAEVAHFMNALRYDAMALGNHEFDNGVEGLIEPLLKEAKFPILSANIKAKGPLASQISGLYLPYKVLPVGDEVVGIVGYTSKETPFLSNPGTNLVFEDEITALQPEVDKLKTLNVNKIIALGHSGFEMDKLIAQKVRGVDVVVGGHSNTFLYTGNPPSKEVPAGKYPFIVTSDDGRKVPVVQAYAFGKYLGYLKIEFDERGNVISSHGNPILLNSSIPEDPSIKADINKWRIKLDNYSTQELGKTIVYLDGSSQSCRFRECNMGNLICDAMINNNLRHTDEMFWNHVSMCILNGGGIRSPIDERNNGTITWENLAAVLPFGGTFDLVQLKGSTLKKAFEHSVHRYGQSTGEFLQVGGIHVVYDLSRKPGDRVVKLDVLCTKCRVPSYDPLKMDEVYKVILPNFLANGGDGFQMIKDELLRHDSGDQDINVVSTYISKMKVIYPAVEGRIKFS
Description: CD73 Enzyme Assay. It counts as biochemical. The following applies: read-out: CD73 Enzyme Assay IC50.

Assay [1] addresses T2, CD73 on U138 human neuroglioma cells (Homo sapiens, UniProt P21589).
T2 construct: U138 cells were obtained from ATCC and cultured in DMEM with 10% FBS; host or cells: U138 human neuroglioma cells
T2 sequence (P21589 27-549): T1 sequence (P21589 27-549)
Briefly: CD73 Cell-Based Assay. Put shortly:
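Whole U138 cells washed free of phosphate were incubated with 200 μM AMP (mixture concentration before equal-volume addition) plus compound in HEPES-buffered saline, pH 7.4, for 2 h at 37 °C, 5% CO2. Adenosine-forming activity read as inorganic phosphate released into supernatant by malachite green.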

The mark [2] stands for this setting: 0.25 nM hCD73, 25 μM AMP, kinetic read at 360 nm.
[3] abbreviates: U138 cells, AMP substrate, 2 hours at 37° C., inorganic phosphate by malachite green.

Take `C[C@@H](Nc1nc(Cl)nc2c1ccn2[C@@H]1O[C@H](COCP(=O)(O)O)[C@@H](O)[C@H]1O)c1ccc(C(F)(F)F)cc1` [Compound 114, [(2R,3S,4R,5R)-5-[2-chloro-4-[[(1R)-1-[4-(trifluoromethyl)-phenyl]ethyl]amino]-pyrrolo[2,3-d]-pyrimidin-7-yl]-3,4-dihydroxy-tetrahydro-furan-2-yl]methoxy-methylphosphonic acid]: the half-inhibitory concentration (IC50) at Human CD73 (setting [2]) was 10 to 100 nM; in assay [1] (setting [3]) it was below 10 nM.

As for `C[C@H](O)C#Cc1nc(NC2CCCC2)c2ccn([C@@H]3O[C@H](COCP(=O)(O)O)[C@@H](O)[C@H]3O)c2n1` [Compound 256, [(2R,3S,4R,5R)-5-[4-(cyclopentylamino)-2-[(3S)-3-hydroxybut-1-ynyl]pyrrolo[2,3-d]-pyrimidin-7-yl]-3,4-dihydroxy-tetrahydro-furan-2-yl]methoxy-methylphosphonic acid], the IC50 (at Human CD73 (setting [2]); in assay [1] (setting [3])) was below 10 nM each time.

With `O=P(O)(O)COC[C@H]1O[C@@H](c2csc3c(N4CC5CCCC5C4)nc(Cl)nc23)[C@H](O)[C@@H]1O` (stereo partly drawn) [Compound 295, [(2R,3S,4R,5S)-5-[4-(3,3a,4,5,6,6a-hexa-hydro-1H-cyclopenta-[c]pyrrol-2-yl)-2-chloro-thieno[3,2-d]-pyrimidin-7-yl]-3,4-dihydroxy-tetrahydro-furan-2-yl]methoxy-methylphosphonic acid], the IC50 (at Human CD73 (setting [2]); in assay [1] (setting [3])) was below 10 nM in each case.

Take `O=P(O)(O)COC[C@H]1O[C@@H](c2csc3c(NC4CCCC4)nc(Cl)nc23)[C@H](O)[C@@H]1O` [Compound 305, [(2R,3S,4R,5S)-5-[2-chloro-4-(cyclopentyl-amino)thieno[3,2-d]-pyrimidin-7-yl]-3,4-dihydroxy-tetrahydro-furan-2-yl]methoxy-methylphosphonic acid]: the half-inhibitory concentration (IC50) (on Human CD73 (setting [2]); in assay [1] (setting [3])) was 10 to 100 nM throughout.

Take `N#Cc1nc(NC2CCCC2)c2cnn([C@@H]3O[C@H](CS(=O)(=O)CP(=O)(O)O)[C@@H](O)[C@H]3O)c2n1` [Compound 296, (((((2S,3S,4R,5R)-5-(6-cyano-4-(cyclopentylamino)-1H-pyrazolo[3,4-d]pyrimidin-1-yl)-3,4-dihydroxytetrahydrofuran-2-yl)methyl)sulfonyl)methyl)phosphonic acid]: the IC50 (on Human CD73 (setting [2]); in assay [1] (setting [3])) was below 10 nM throughout.

Turning to `C[C@H]1CCCN1c1nc(Cl)nc2c1ccn2[C@@H]1O[C@H](COCP(=O)(O)O)[C@@H](O)[C@H]1O` [Compound 284, [(2R,3S,4R,5R)-5-[2-chloro-4-[(2S)-2-methylpyrrolidin-1-yl]pyrrolo[2,3-d]-pyrimidin-7-yl]-3,4-dihydroxy-tetrahydro-furan-2-yl]methoxy-methylphosphonic acid], the IC50 (at Human CD73 (setting [2]); in assay [1] (setting [3])) was 10 to 100 nM each time.

As for `CCOP(=O)(O)COC[C@H]1O[C@@H](n2ccc3c(NC4CCCC4)nc(Cl)nc32)[C@H](O)[C@@H]1O` [Compound 184, [(2R,3S,4R,5R)-5-[2-chloro-4-(cyclopentyl-amino)pyrrolo[2,3-d]-pyrimidin-7-yl]-3,4-dihydroxy-tetrahydro-furan-2-yl]methoxy-methylethoxy-phos-phinic acid], the IC50 is above 1000 nM at Human CD73 and 100 to 1000 nM in assay [1].

On to `C[C@@H](Nc1cc(Cl)nc2c1ccn2[C@@H]1O[C@H](COCP(=O)(O)O)[C@@H](O)[C@H]1O)c1ccccc1` [Compound 134, [(2R,3S,4R,5R)-5-[6-chloro-4-[[(1R)-1-phenylethyl]amino]pyrrolo[2,3-b]pyridin-1-yl]-3,4-dihydroxy-tetrahydrofuran-2-yl]methoxymethylphosphonic acid], for which the IC50 at Human CD73 (setting [2]) was below 10 nM; in assay [1] (setting [3]), 10 to 100 nM.

With `CN(C)c1nc(Cl)nc2c1ccn2[C@@H]1O[C@H](COCP(=O)(O)O)[C@@H](O)[C@H]1O` [Compound 93, [(2R,3S,4R,5R)-5-[2-chloro-4-(dimethyl-amino)pyrrolo[2,3-d]-pyrimidin-7-yl]-3,4-dihydroxy-tetrahydro-furan-2-yl]methoxy-methylphosphonic acid], the concentration for half-maximal inhibition (IC50) on Human CD73 (setting [2]) is below 10 nM; in assay [1] (setting [3]), 10 to 100 nM.

`CC(C)Nc1ncnc2c1ncn2[C@@H]1O[C@H](COCP(=O)(O)O)[C@@H](O)[C@H]1O` [Compound 12, [(2R,3S,4R,5R)-3,4-dihydroxy-5-[6-(iso-propylamino)purin-9-yl]tetrahydrofuran-2-yl]methoxymethyl-phosphonic acid]: the figures for the IC50 (at Human CD73 (setting [2]); in assay [1] (setting [3])) were 100 to 1000 nM and above 1000 nM, respectively.

With `CCNc1nc(Cl)nc2c1ccn2[C@@H]1O[C@H](CS(=O)(=O)CP(=O)(O)O)[C@@H](O)[C@H]1O` [Compound 176, [(2S,3S,4R,5R)-5-[2-chloro-4-(ethylamino)-pyrrolo[2,3-d]-pyrimidin-7-yl]-3,4-dihydroxy-tetrahydro-furan-2-yl]methyl-sulfonylmethylphos-phonic acid], the IC50 (at Human CD73 (setting [2]); in assay [1] (setting [3])) was 10 to 100 nM each time.

On to `O=P(O)(O)CS(=O)(=O)C[C@H]1O[C@@H](n2ccc3c(NC4CC(F)(F)C4)nc(Cl)nc32)[C@H](O)[C@@H]1O` [Compound 173, [(2S,3S,4R,5R)-5-[2-chloro-4-[(3,3-difluoro-cyclobutyl)amino]-pyrrolo[2,3-d]-pyrimidin-7-yl]-3,4-dihydroxy-tetrahydro-furan-2-yl]methyl-sulfonylmethylphos-phonic acid], for which the 50% inhibitory concentration (IC50) (on Human CD73 (setting [2]); in assay [1] (setting [3])) was below 10 nM throughout.

In the case of `CCNc1nc(Cl)nc2c1ccn2[C@@H]1O[C@H](COCP(=O)(O)O)[C@@H](O)[C@H]1O` [Compound 98, [(2R,3S,4R,5R)-5-[2-chloro-4-(ethylamino)-pyrrolo[2,3-d]-pyrimidin-7-yl]-3,4-dihydroxy-tetrahydro-furan-2-yl]methoxy-methylphosphonic acid], the half-inhibitory concentration (IC50) (at Human CD73 (setting [2]); in assay [1] (setting [3])) was 10 to 100 nM each time.

Take `C[C@H](c1ccccc1)N(C)c1nc(C#N)nc2c1ncn2[C@@H]1O[C@H](COCP(=O)(O)O)[C@@H](O)[C@H]1O` [Compound 113]: the IC50 (on Human CD73 (setting [2]); in assay [1] (setting [3])) was 10 to 100 nM throughout.

For `O=P(O)(O)COC[C@H]1O[C@@H](n2ncc3c(N4CC5CC5C4)nc(Cl)nc32)[C@H](O)[C@@H]1O` (stereo partly drawn) [Compound 280, [(2R,3S,4R,5R)-5-[4-(3-azabicyclo[3.1.0]-hexan-3-yl)-6-chloro-pyrazolo[3,4-d]-pyrimidin-1-yl]-3,4-dihydroxy-tetrahydro-furan-2-yl]methoxy-methylphosphonic acid], the IC50 (on Human CD73 (setting [2]); in assay [1] (setting [3])) was below 10 nM in each case.

In the case of `O=P(O)(O)COC[C@H]1O[C@@H](n2ccc3c(OC4CCCC4)nc(Cl)nc32)[C@H](O)[C@@H]1O` [Compound 219, [(2R,3S,4R,5R)-5-[2-chloro-4-(cyclo-pentoxy)pyrrolo[2,3-d]-pyrimidin-7-yl]-3,4-dihydroxy-tetrahydro-furan-2-yl]methoxy-methylphosphonic acid], the half-inhibitory concentration (IC50) (on Human CD73 (setting [2]); in assay [1] (setting [3])) was 10 to 100 nM each time.

As for `O=P(O)(O)CS(=O)(=O)C[C@H]1O[C@@H](n2ccc3c(N4CCC(F)(F)C4)nc(Cl)nc32)[C@H](O)[C@@H]1O` [Compound 164, [(2S,3S,4R,5R)-5-[2-chloro-4-(3,3-difluoro-pyrrolidin-1-yl)-pyrrolo[2,3-d]-pyrimidin-7-yl]-3,4-dihydroxy-tetrahydro-furan-2-yl]methyl-sulfonylmethylphos-phonic acid], the concentration for half-maximal inhibition (IC50) (on Human CD73 (setting [2]); in assay [1] (setting [3])) was below 10 nM each time.

For the compound `O=P(O)(O)COC[C@H]1O[C@@H](n2ccc3c(Sc4ccccc4)nc(Cl)nc32)[C@H](O)[C@@H]1O` [Compound 207, [(2R,3S,4R,5R)-5-(2-chloro-4-phenyl-sulfanyl-pyrrolo[2,3-d]-pyrimidin-7-yl)-3,4-dihydroxy-tetrahydro-furan-2-yl]methoxy-methylphosphonic acid], the concentration for half-maximal inhibition (IC50) (on Human CD73 (setting [2]); in assay [1] (setting [3])) was 100 to 1000 nM throughout.

`C[C@H](Nc1nc(Cl)nc2c1ccn2[C@@H]1O[C@H](COCP(=O)(O)O)[C@@H](O)[C@H]1O)c1ccc(F)cn1` [Compound 139, [(2R,3S,4R,5R)-5-[2-chloro-4-[[(1S)-1-(5-fluoro-2-pyridyl)-ethyl]amino]pyrrolo-[2,3-d]pyrimidin-7-yl]-3,4-dihydroxy-tetrahydrofuran-2-yl]-methoxymethylphos-phonic acid]: the IC50 is below 10 nM on Human CD73 (setting [2]) and 10 to 100 nM in assay [1] (setting [3]).

Turning to `C[C@@H](Nc1nc(Cl)nc2c1ccn2[C@@H]1O[C@H](COCP(=O)(O)O)[C@@H](O)[C@H]1O)c1ccc(Cl)cc1` [Compound 94, [(2R,3S,4R,5R)-5-[2-chloro-4-[[(1R)-1-(4-chlorophenyl)ethyl]-amino]pyrrolo[2,3-d]-pyrimidin-7-yl]-3,4-dihydroxy-tetrahydro-furan-2-yl]methoxy-methylphosphonic acid], the half-maximal inhibitory concentration (IC50) (on Human CD73 (setting [2]); in assay [1] (setting [3])) was below 10 nM each time.
